Several values for one entry are separate records, joined by “and”; a condition that tells them apart may be missing. Identical values can stand only once.
What was measured:
ADPRT [1] = settings: Proc. Nat. Acad. Sci. (USA), 84:1107 (1987); cited from earlier work
ADPRT [2] = assay: Binding to ADPRT; settings: 6-nitroso oxidation product
CMV = settings: cited from earlier work
oris DNA of HSV-1 = assay: Nitrocellulose filter binding to HSV-1 oris DNA; settings: input oris DNA 8,000/sample
Protocol: This example illustrates HSV DNA binding at the site of replication (oris) initiation at ADPRT.
The 230 bp XbaI-HindIII oris DNA of HSV-1 was isolated from plasmid pKC4 and radioactively labeled with [32P]dCTP by fill-in reaction with the Klenow form of E. coli DNA polymerase. Labeled DNA fragments were purified as previously described in J. Virol., 63:2773 (1989).
Nitrocellulose filters (Schleicher and Schuell, BA 85, […] pore size, 27 mm diameter) were presoaked for 60 minutes in binding buffer (250 mM Tris-Cl, pH 8.0, 100 mM MgCl2, 1000 mM NaCl, 0.6 mM DTT, 0.1 mg/ml BSA, 0.1 mM PMSF and 0.1 mM TLCK). 5 ul of [32P] oris DNA was added to 210 ul of cold binding buffer and incubated for 1 minute. 2 ul of either ADPRT (200 ng) or HSV-1 infected Vero cell extract (Vero(F), 2 ug) was then added to the DNA solution and incubated for 10 minutes at 25° C. Samples were transferred to ice, followed by filtration through the nitrocellulose filters. The filters were then washed four times with cold wash buffer containing 25 mM Tris-Cl, pH 8.0, 10 mM MgCl2, 0.5 mM DTT, 100 mM NaCl, 5% DMSO. The filters were dried and the amount of radioactive material bound to the filters was determined by scintillation spectrophotometry.

Question: For `O=c1ccc2ccccc2o1` [1,2-benzopyrone], which “inhibition of ADPRT” value (ADPRT [1]) is on record?
Answer: inhibitory ligand

Question: With `O=Nc1ccc2oc(=O)ccc2c1` [6-NBP, 6-nitroso-1,2-benzopyrone] as the molecule, how does the “binding to zinc-fingers of ADPRT” value (ADPRT [2]) read?
Answer: binds specifically and with high affinity

Question: For `Nc1nc2c(ncn2COCCO)c(=O)[nH]1` [acyclovir], which “CMV sensitivity” value (CMV) is on record?
Answer: CMV is resistant to acyclovir

Question: For ADPRT, which “% Specific Bound” value (oris DNA of HSV-1) is on record?
Answer: 78.6% and ~80%

Question: What about the “CPM Bound to Filter” value (oris DNA of HSV-1; average of duplicate samples) of the same molecule?
Answer: 6384 CPM
